Assay results reported in publication PMC12197453 (Viruses, 2025).

Assays:
293T cells = test: Cytotoxicity (Cell Counting Kit-8) in 293T cells; assay type: cell-based; conditions: 10 μM, 48 h
rJEV-EGFP [1] = test: Inhibition of rJEV-EGFP replication in 293T cells (green fluorescence); assay type: cell-based, Japanese encephalitis virus; conditions: 10 μM, 48 h post-treatment, vs DMSO
A549 cells = test: Cytotoxicity assay (Cell Counting Kit-8) in A549 cells; assay type: cell-based; conditions: 48 h; for cytotoxicity (cell viability): 10 μM; for CC50: Cell Counting Kit-8, read-out: CC50 (50% cytotoxic concentration)
rJEV-EGFP [2] = test: Inhibition of rJEV-EGFP replication in A549 cells; assay type: cell-based, Japanese encephalitis virus; conditions: for intensities of green fluorescence produced by rJEV-EGFP replication: 10 μM, vs DMSO; for intensities of green fluorescence produced by rJEV-EGFP replication / levels of the JEV NS1 gene (qRT-PCR): 48 h post-treatment, A549 cells; for SI (Selectivity Index): SI = CC50/EC50, A549 cells; for levels of the JEV NS1 gene (qRT-PCR): different concentrations
JEV-GFP replicon = test: Inhibition of JEV-GFP replicon replication in transfected BHK-21 cells; assay type: cell-based, Japanese encephalitis virus; conditions: 48 h, BHK-21 transfectants; for NS1 gene expression of the JEV-GFP replicon (library screening): screen of 20 bioactive compounds, qRT-PCR
rJEV-EGFP [3] = test: Inhibition of rJEV-EGFP replication in BHK-21 cells (green fluorescence); assay type: cell-based, Japanese encephalitis virus; conditions: 10 μM, 48 h post-treatment, vs DMSO
BHK-21 cells = test: Cytotoxicity (Cell Counting Kit-8) in BHK-21 cells; assay type: cell-based; conditions: 10 μM, 48 h
[4] = Cytotoxicity assay (Cell Counting Kit-8) in A549 cells; assay type: cell-based; conditions: human, Cell Counting Kit-8, read-out: CC50 (50% cytotoxic concentration)

Row | SMILES | cytotoxicity (cell viability) (293T cells) | intensities of green fluorescence produced by rJEV-EGFP replication (rJEV-EGFP [1]) | cytotoxicity (cell viability) (A549 cells) | CC50 (A549 cells) [µM] | intensities of green fluorescence produced by rJEV-EGFP replication (rJEV-EGFP [2]) | SI (Selectivity Index) (rJEV-EGFP [2]) | levels of the JEV NS1 gene (qRT-PCR) (rJEV-EGFP [2]) | intensity of green fluorescence of JEV-GFP replicon (JEV-GFP replicon; 10 μM, vs DMSO) | levels of the NS1 gene of JEV-GFP replicon (qRT-PCR) (JEV-GFP replicon; 10 μM, vs DMSO) | NS1 gene expression of the JEV-GFP replicon (library screening) (JEV-GFP replicon) | intensities of green fluorescence produced by rJEV-EGFP replication (rJEV-EGFP [3]) | cytotoxicity (cell viability) (BHK-21 cells) | CC50 at 48 h [4] [µM] | SI (Selectivity Index) (rJEV-EGFP [2]; listed as quinine)
1 | COc1cc(NC(C(=O)N2CCc3ccc(OC(F)(F)F)cc32)c2ccc(Cl)cc2)cc(OCCCC(=O)O)c1 (stereo not shown) [JNJ-A07] | no significant cytotoxicities | remarkably reduced | no significant cytotoxicities | 29.9 | remarkably reduced | 2296.92 | significantly decreased | significantly reduced | reduced | higher inhibitory effect | remarkably reduced | no significant cytotoxicities | – | –
2 | C#C[C@@]1(O)[C@H](O)[C@@H](CO)O[C@H]1n1ccc2c(N)ncnc21 [NITD008] | no significant cytotoxicities | remarkably reduced | no significant cytotoxicities | 37.8 | remarkably reduced | – | significantly decreased | – | reduced | higher inhibitory effect | remarkably reduced | no significant cytotoxicities | – | –
3 | C=C[C@H]1C[N@@]2CC[C@H]1C[C@H]2[C@H](O)c1ccnc2ccc(OC)cc12 [Quinine] | no significant cytotoxicities | remarkably reduced | no significant cytotoxicities | – | remarkably reduced | 282.47 | significantly decreased | – | reduced | higher inhibitory effect | remarkably reduced | no significant cytotoxicities | 45.8 | 334.16
